Experimental data taken from patent publication US20210401987A1, “METHODS AND COMPOSITIONS FOR TREATING INFLAMMATORY AND FIBROTIC PULMONARY DISORDERS” (University of Houston System, priority 2020, published 2021).
pIC50: −log10 of the molar value.

Columns and labels:
[1] = target: STAT3 (Homo sapiens, UniProt P40763); conditions: cited from earlier work
[2] = test system: human airway microvasculature endothelial cells; assay: Endothelial cell activation assessed by expression of Vcam1 (CD106); assay type: cell-based; conditions: IL-13 challenge of human lung endothelial cells
Text: Given the robust inflammatory response triggered by xenografts of COPD clone libraries, the inventors asked if this inflammatory activity was a function of one or more of the constituent clone types. Using pathway enrichment analysis algorithms for the gene expression profiles of the four clone types, the multiple inflammatory pathways highlighted in clones of Cluster 4 was striking including Antigen Presentation, Interferon Signaling, Graft-vs-Host responses, and Dendritic Cell Maturation among others, and their relative absence from clones of Clusters 1, 2, and 3 (FIG. 5A; FIG. 12A). The inventors tested media conditioned by clones of Clusters 1-4 for their ability to trigger phase I and II activation of human airway microvasculature endothelial cells, an essential step in leukocyte recruitment (Filippi, 2016). […] In this same assay media conditioned by Cluster 2 (GCM) or Cluster 3 (SCM) clones, respectively, yielded 4- and 10-fold inductions of VCAM1, and while media from Cluster 4 (iSCM) clones induced Vcam1 by 60-fold (FIG. 12B).

[3] = test system: ERBB2; conditions: cited from earlier work

STAT3, sequence (P40763 whole entry): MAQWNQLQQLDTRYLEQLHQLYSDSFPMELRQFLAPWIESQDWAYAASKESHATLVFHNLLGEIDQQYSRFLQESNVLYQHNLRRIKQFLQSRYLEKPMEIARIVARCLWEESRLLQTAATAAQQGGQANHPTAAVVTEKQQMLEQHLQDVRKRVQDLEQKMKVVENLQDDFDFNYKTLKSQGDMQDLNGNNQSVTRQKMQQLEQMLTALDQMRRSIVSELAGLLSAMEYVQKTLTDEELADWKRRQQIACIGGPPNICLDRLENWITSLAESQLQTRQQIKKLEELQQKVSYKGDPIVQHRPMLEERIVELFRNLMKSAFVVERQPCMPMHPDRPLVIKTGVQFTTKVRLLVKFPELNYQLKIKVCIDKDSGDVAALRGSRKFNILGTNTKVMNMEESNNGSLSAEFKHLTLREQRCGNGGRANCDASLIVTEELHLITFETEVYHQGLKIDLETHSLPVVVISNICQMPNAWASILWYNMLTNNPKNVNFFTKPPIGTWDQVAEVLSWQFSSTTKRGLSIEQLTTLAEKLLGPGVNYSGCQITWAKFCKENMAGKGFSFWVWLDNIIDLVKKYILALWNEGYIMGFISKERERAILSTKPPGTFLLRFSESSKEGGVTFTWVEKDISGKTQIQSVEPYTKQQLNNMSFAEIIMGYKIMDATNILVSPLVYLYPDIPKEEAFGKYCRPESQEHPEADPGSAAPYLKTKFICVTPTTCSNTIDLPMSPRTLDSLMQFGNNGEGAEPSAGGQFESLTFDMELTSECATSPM

In the case of O=[N+]([O-])c1ccc2c(c1)S(=O)(=O)C=C2 [Stattic], the pIC50 ([1]; cell-free assays, read-out: IC50 of STAT3 activation and nuclear translocation) is given as 5.29 and the “selectivity over STAT1” value [1] is given as “highly selectivity over STAT1”.

With IL-13: Human IL-13 Recombinant Protein the “induction of Vcam1” value [2] was 30 fold.

For C=CC(=O)Nc1cccc(Sc2nc(Nc3ccc(N4CCN(C)CC4)cc3)ncc2Cl)c1 [WZ8040], the “inhibition of ERBB2 phosphorylation” value [3] is listed as “does not inhibit”.
